pEC50: −log10 of the molar value.
Legend:
[1] = target: T1, human wild type STING (WT STING) (Homo sapiens, UniProt Q86WV6, H232R); experiment: Digitonin assay using 293T wtSTING-FL reporter cells; assay type: cell-based; conditions: 293T wtSTING-FL cells; ISRE firefly luciferase reporter; 30 min in Digitonin buffer, then 5 hours; 8-point dose-response curve
T1 construct: host or cells: 293T (ATCC CRL-3216), stably transfected, with a 4xISRE firefly luciferase reporter
Text: ISRE Reporter Plasmid (pGL64.27-4×ISRE)
Two complementary oligonucleotides of the sequence […] […] […] […] […] The oligonucleotides were mixed in equal molar amounts, hybridized, and cleaved by restriction endonucleases HindIII (cat. #. R0104S, NEB, Ipswich, USA) and BglII (cat. #R0144S, NEB, Ipswich, USA). Ultimately, they were ligated into plasmid pGL4.27 (cat. #E6651, Promega, Madison, USA) linearized with the same enzymes. As result the sequence with four ISRE sites was placed upstream of the minimum promoter of firefly luciferase reporter gene.
After 5 minutes incubation at room temperature (RT), 250 μL of the mixture was added dropwise to the cells in one well. Cells were incubated 36 hours at 37° C. with 5% CO2, and then detached with 0.05% Trypsin and 0.22 g/L EDTA (both cat. #L0941, Biowest, Riverside, USA).
Transfected cells were seeded onto poly-D-lysine coated six well plates at density 50,000 cells per 1 cm^2 in DMEM medium with high glucose containing 10% heat inactivated FBS, 30 μg/mL blasticidin (cat. #ant-bl-05, InvivoGen, San Diego, USA), 0.06 mg/ml Penicillin G and 0.1 mg/ml Streptomycin Sulfate (both cat. #. L0018, Biowest, Riverside, USA). The medium was replenished every 3-4 days until visible colonies of cells resistant to blasticidin were formed.
Blasticidin resistant cells stably expressing WT STING were further transfected with pGL64.27-4×ISRE plasmid following the same procedure as described above. […] Homogeneous culture of stably double transfected cells was prepared by limiting dilution of cells in 96 well plates and wells with cells were selected that originated from a single cell.
The medium was removed next day and three fold serial dilutions of compounds in Digitonin buffer containing 50 mmol·l^−1 HEPES (cat. #H3375, Sigma Aldrich, Czech Republic) pH 7.0, 100 mmol·l^−1 KCl, 3 mmol·l^−1 MgCl2, 0.1 mmol·l^−1 DTT (cat. #D0632, Sigma Aldrich, Czech Republic), 85 mmol·l^−1 Sucrose (cat. #S7903, Sigma Aldrich, Czech Republic), 0.2% BSA (cat. #A2153, Sigma Aldrich, Czech Republic), 1 mmol·l^−1 ATP (cat. #A1852, Sigma Aldrich, Czech Republic), 0.1 mmol·l^−1 GTP (cat. #G8877, Sigma Aldrich, Czech Republic), and 10 μg/mL Digitonin A (cat. #D141, Sigma Aldrich, Czech Republic) were added to the cells. The buffer was removed after 30 minutes incubation at 37° C. with 5% CO2, the cells were washed once with 100 μl of cultivation medium, and 100 μl of medium was added to each well. The plates with cells were incubated for 5 hours at 37° C. with 5% CO2, 50 μl of the medium was removed and 30 μl of ONE-Glo™ Luciferase Assay System reagent (cat. #E6120, Promega, Madison, USA) was added to each well. Luminescence was read on Synergy H1 (Biotek, Winooski, USA).

AQ STING (G230A-R293Q) = target: T2, AQ STING (G230A-R293Q) (Homo sapiens, UniProt Q86WV6, G230A/H232R/R293Q); experiment: Differential Scanning Fluorimetry (DSF) with AQ STING; assay type: binding; conditions: thermal shift vs STING apoprotein; 150 μM CDN; 0.1 mg/ml protein; SYPRO Orange
T2 construct: encoded truncated human WT STING or AQ STING (amino acid residues 140-343) with N-terminal 8×His and SUMO tag; 8xHis-SUMO (N, cleaved yes); made in house; host or cells: E. coli Rosetta-gami B (DE3)
T2 sequence (Q86WV6 140-343 G230A/H232R/R293Q): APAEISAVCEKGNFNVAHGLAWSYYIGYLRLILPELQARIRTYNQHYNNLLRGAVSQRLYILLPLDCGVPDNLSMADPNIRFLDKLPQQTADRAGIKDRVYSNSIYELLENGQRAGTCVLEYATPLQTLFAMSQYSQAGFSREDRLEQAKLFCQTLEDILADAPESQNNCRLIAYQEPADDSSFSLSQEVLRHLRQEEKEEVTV
Protocol: (§1) WT STING and AQ STING Proteins
(§2) Purified PCR products were cleaved with restriction enzymes BamHI (cat. #R0136S, NEB, Ipswich, USA) and NotI (cat. #R0189S, NEB, Ipswich, USA) and cloned into the pSUMO vector linearized with the identical enzymes.
(§3) DNase I (cat. #D5025, Sigma Aldrich, Czech Republic) and RNase A (cat. #R6513, Sigma Aldrich, Czech Republic) were added (final concentration 50 μg/ml) together with MgCl2 (final concentration 5 mmol·l^−1) to the homogenate and bacteria were lysed using French Press G-M™ High-Pressure Cell Press Homogenizer (1500 psi, 3 cycles). […] The resin was poured into a chromatography column, washed with 50 ml buffer A (50 mmol·l^−1 TrisCl (pH 8.0), 800 mmol·l^−1 NaCl, 3 mmol·l^−1 3-mercaptol; 10% glycerol; 20 mmol·l^−1 imidazole) and 8-His-SUMO tagged STING proteins were eluted with 15 ml buffer A containing 300 mmol·l^−1 imidazole. […] Proteins were concentrated with Amicon® Ultra-15 10 K device (cat. #UFC901008, Merck Millipore, Billerica, USA) and flash frozen in liquid N2.
(§4) Differential Scanning Fluorimetry (DSF) with WT STING and AQ STING
(§5) 20 μL solutions of the reaction mixtures were pipetted in triplicates into 96 well optical reaction plates and thermal denaturation of samples were performed on real time PCR cycler (LightCycler R 480 Instrument II—Roche, Basel, Switzerland). The first derivative of the thermal denaturation curves was performed to calculate denaturing temperatures of STING-CDN complexes and STING apoproteins. The thermal shift for each CDN was calculated by subtracting the average denaturing temperature of STING apoprotein from the average denaturing temperature of STING CDN complex.

WT STING = target: T3, WT STING (Homo sapiens, UniProt Q86WV6, H232R); experiment: Differential Scanning Fluorimetry (DSF) with WT STING; assay type: binding; conditions: thermal shift vs STING apoprotein; 150 μM CDN; 0.1 mg/ml protein; SYPRO Orange
T3 construct: encoded truncated human WT STING or AQ STING (amino acid residues 140-343) with N-terminal 8×His and SUMO tag; 8xHis-SUMO (N, cleaved yes); made in house; host or cells: E. coli Rosetta-gami B (DE3)
T3 sequence (Q86WV6 140-343 H232R): as the sequence (Q86WV6 140-343 G230A/H232R/R293Q) above, with A91G, Q154R counted along it
Protocol: as §1, §2, §3, §4, §5

T1 sequence (Q86WV6 whole entry H232R): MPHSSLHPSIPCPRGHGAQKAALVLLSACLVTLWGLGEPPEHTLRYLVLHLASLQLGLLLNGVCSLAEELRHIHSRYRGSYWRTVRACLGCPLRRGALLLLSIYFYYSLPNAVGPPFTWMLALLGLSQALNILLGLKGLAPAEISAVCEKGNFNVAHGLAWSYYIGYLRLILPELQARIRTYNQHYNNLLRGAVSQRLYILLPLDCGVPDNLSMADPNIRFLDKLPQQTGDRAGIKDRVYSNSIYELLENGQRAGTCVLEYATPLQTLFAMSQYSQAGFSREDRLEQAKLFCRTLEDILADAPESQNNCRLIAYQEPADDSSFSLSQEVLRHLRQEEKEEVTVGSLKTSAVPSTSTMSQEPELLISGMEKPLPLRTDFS

Nc1ncnc2c1ncn2[C@@H]1O[C@@H]2COP(=O)(O)OC3C(O)[C@H](n4cnc5c(N)ncnc54)O[C@@H]3OCP(=O)(O)OC2C1N (stereo partly drawn) [Compound 47]
pEC50 [1]: 4.68 | ΔTm at 150 µM (AQ STING (G230A-R293Q)): 2.1 °C | ΔTm at 150 µM (WT STING): 0.1 °C

Nc1ncnc2c1ncn2[C@@H]1O[C@@H]2OCP(=O)(O)OC3C(O)[C@H](n4cnc5c(N)nc(F)nc54)O[C@@H]3COP(=O)(O)OC2C1O (stereo partly drawn) [Compound 52]
pEC50 [1]: 5.66 | ΔTm at 150 µM (AQ STING (G230A-R293Q)): 6.3 °C | ΔTm at 150 µM (WT STING): 1.1 °C

CNc1ncnc2c1ncn2[C@@H]1O[C@@H]2COP(=O)(O)OC3C(O)[C@H](n4cnc5c(=O)[nH]c(N)nc54)O[C@@H]3OCP(=O)(O)OC2C1O (stereo partly drawn) [Compound 39]
pEC50 [1]: 6.92 | ΔTm at 150 µM (AQ STING (G230A-R293Q)): 8 °C | ΔTm at 150 µM (WT STING): 2.9 °C

Nc1nc2c(nnn2[C@@H]2O[C@@H]3OCP(=O)(O)OC4C(O)[C@H](n5cnc6c(N)ncnc65)O[C@@H]4COP(=O)(O)OC3C2O)c(=O)[nH]1 (stereo partly drawn) [Compound 54]
pEC50 [1]: 7.22 | ΔTm at 150 µM (AQ STING (G230A-R293Q)): 12.2 °C | ΔTm at 150 µM (WT STING): 3.9 °C

Nc1nc(Cl)c2ncn([C@@H]3O[C@@H]4COP(=O)(O)OC5C(O)[C@H](n6cnc7c(N)ncnc76)O[C@@H]5OCP(=O)(O)OC4C3O)c2n1 (stereo partly drawn) [Compound 40]
pEC50 [1]: 5.12 | ΔTm at 150 µM (AQ STING (G230A-R293Q)): 2.1 °C | ΔTm at 150 µM (WT STING): 0.4 °C

Nc1ncnc2c1ncn2[C@@H]1O[C@@H]2OCP(=O)(O)OC3C(O)[C@H](n4cnc5c(N)ncnc54)O[C@@H]3COP(=O)(O)OC2C1O (stereo partly drawn) [Compound 51]
pEC50 [1]: 6.77 | ΔTm at 150 µM (AQ STING (G230A-R293Q)): 10.6 °C | ΔTm at 150 µM (WT STING): 4 °C

From patent US10966999B2, “3′3′ cyclic dinucleotides with phosphonate bond activating the sting adaptor protein” (INSTITUTE OF ORGANIC CHEMISTRY AND BIOCHEMISTRY ASCR, V.V.I., priority 2017, dated 2021)
